One assay deals with T1, RIPK2 (KD)/XIAP (BIR2) (Homo sapiens, UniProt O43353).
T1 construct: made in house; host or cells: baculovirus-infected Sf9 cells
The assay is described as follows: RIPK2-XIAP binding competition PPI assay (TR-FRET). The conditions noted are these: for Emax: 50 nM of GSK583 = -100% activity, read-out: PPI Amax; for IC50: GST-RIPK2 / His-XIAP (BIR2)-avi, 120 min at 23° C. A digest of the protocol:
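After 2 h at 23 °C, complex formation was read as the 665/520 nm emission ratio (337 nm excitation), scaled between uninhibited reaction and 50 nM GSK583. The mix held 1 nM human RIPK2 kinase fragment-GST, 25 nM His-tagged XIAP BIR2 and Tb/XL665 antibodies in pH 7.5 Tris buffer containing vanadate and glycerophosphate.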
On the technique in general: TR-FRET usually uses a lanthanide donor and a delayed reading to cut background.

Assay [1] deals with T2, GST-RIPK2 fusion protein (human RIPK2 amino acids 1-310) (Homo sapiens, UniProt O43353).
T2 construct: made in house; host or cells: baculovirus-infected Sf9 cells
T2 sequence (O43353 1-310): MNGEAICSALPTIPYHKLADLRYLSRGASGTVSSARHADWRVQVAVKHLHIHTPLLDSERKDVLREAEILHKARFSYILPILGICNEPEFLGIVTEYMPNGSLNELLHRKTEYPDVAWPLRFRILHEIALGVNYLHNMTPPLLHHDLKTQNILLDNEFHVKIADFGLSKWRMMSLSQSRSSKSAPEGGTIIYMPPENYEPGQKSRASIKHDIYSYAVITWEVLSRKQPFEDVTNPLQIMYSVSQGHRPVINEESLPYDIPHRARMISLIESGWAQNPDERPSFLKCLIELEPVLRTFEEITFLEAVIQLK
As to the kind of experiment: RIPK2 binding competition assay (TR-FRET, Tracer 199). As to conditions: displacement of Tracer 199 (10 nM), 45 min at 22° C. The source says: The ability of selected compounds of Formulas (I) and (II) to inhibit the binding of an Alexa647-labelled ATP-competitive kinase inhibitor to a GST-RIPK2 fusion protein was quantified employing the TR-FRET-based RIPK2 binding competition assay as described in the following paragraphs.
Recombinant fusion protein of N-terminal Glutathione-S-Transferase (GST) and a fragment of human RIPK2 (amino acids 1-310 of accession number 043353), expressed in baculovirus infected Sf9 cells, purified via glutathione affinity chromatography, was used as GST-RIPK2 fusion protein. Tracer 199 from Life Technologies (catalogue no. PR9115B) was used as Alexa647-labelled ATP-competitive kinase inhibitor.
For the assay, 50 nL of a 100-fold concentrated solution of each test compound in DMSO was pipetted into either a black low volume 384-well microtiter plate or a black 1536-well microtiter plate (both Greiner Bio-One, Frickenhausen, Germany), 3 μL solution of Tracer 199 (16.7 nM=>final concentration in 5 μL assay volume is 10 nM) in aqueous assay buffer (25 mM Tris/HCl pH 7.5, 10 mM magnesium chloride (MgCl2), 5 mM β-glycerophosphate, 2.5 mM dithiothreitol (DTT), 0.5 mM ethylene glycol-bis(2-aminoethylether)-N,N,N′,N′-tetraacetic acid (EGTA), 0.5 mM sodium ortho-vanadate, 0.01% (w/v) bovine serum albumin (BSA), 0.005% (w/v) Pluronic F-127 (Sigma)) were added. Then the binding competition was started by the addition of 2 μL of a solution of the GST-RIPK2 fusion protein (2.5 nM=>final conc. in the 5 μL assay volume is 1 nM) and of Anti-GST-Tb (1.25 nM=>final conc. in the 5 μL assay volume is 0.5 nM), a Lumi4®—Tb cryptate-conjugated anti-GST antibody from PerkinElmer (catalogue no 61GSTTAH), in assay buffer.
The resulting mixture was incubated 45 min at 22° C. to allow the formation of a complex between the Tracer 199, the fusion protein and Anti-GST-Tb. Subsequently, the amount of this complex was evaluated by measurement of the resonance energy transfer from the Tb-cryptate to the Tracer 199. Therefore, the fluorescence emissions at 620 nm and 665 nm after excitation at 337 nm were measured in a TR-FRET reader, e.g. a Pherastar FS(BMG Labtechnologies, Offenburg, Germany) or a Viewlux (PerkinElmer). The ratio of the emissions at 665 nm and at 620 nm was taken as the measure of the amount of the complex. The data were normalized (assay reaction without inhibitor=0% activity, all other assay components but no GST-RIPK2 fusion protein=−100% activity).

In assay [2] the test system is THP1-Dual cells, NF-κB pathway (SEAP). The assay is described as follows: THP-1 Dual cell SEAP assay (L18-MDP stimulated). Type of assay: cell-based. As to conditions: Homo sapiens, 10 ng/mL L18-MDP, 20-24 h, SEAP readout, read-out: IFNγ THP1 IC50. An outline of the steps: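 IC50 values come from non-linear fits of % inhibition of SEAP, measured as QUANTI-Blue optical density (620-655 nm, 2 h) in media-blanked supernatants. These were taken from THP1-Dual cells treated with compound for 30 min before overnight exposure to 10 ng/mL L18-MDP final at 37 °C.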

T1 sequence (O43353 1-310): as above

The IC50 is the midpoint of a concentration-inhibition curve. Take `COc1cc2ncc(-n3cc(NC(=O)Cc4cccc(F)c4Cl)cn3)n2cc1S(=O)(=O)C(C)(C)C` [Example 156, N-(1-(6-(tert-butylsulfonyl)-7-methoxyimidazo[1,2-a]pyridin-3-yl)-1H-pyrazol-4-yl)-2-(2-chloro-3-fluorophenyl)acetamide]: the Emax at RIPK2 (KD)/XIAP (BIR2) was no less than 80%. Also, the IC50 at RIPK2 (KD)/XIAP (BIR2) was greater than 1000 nM; in assay [1] it was 500 to 1000 nM; in assay [2], greater than 2500 nM.
For the compound `COc1cc2ncc(-n3cc(NC(=O)Cc4cc(F)ccc4Cl)cn3)n2cc1S(=O)(=O)C(C)(C)C` [Example 157, N-(1-(6-(tert-butylsulfonyl)-7-methoxyimidazo[1,2-a]pyridin-3-yl)-1H-pyrazol-4-yl)-2-(2-chloro-5-fluorophenyl)acetamide], the Emax at RIPK2 (KD)/XIAP (BIR2) was no less than 80%. The half-maximal inhibitory concentration (IC50) at RIPK2 (KD)/XIAP (BIR2) is greater than 1000 nM; in assay [1] it was 500 to 1000 nM; in assay [2] it was greater than 2500 nM.
As to `COc1cc2ncc(-n3cc(NC(=O)Cc4ccc(F)cc4Cl)cn3)n2cc1S(=O)(=O)C(C)(C)C` [Example 158, N-(1-(6-(tert-butylsulfonyl)-7-methoxyimidazo[1,2-a]pyridin-3-yl)-1H-pyrazol-4-yl)-2-(2-chloro-4-fluorophenyl)acetamide], on RIPK2 (KD)/XIAP (BIR2), the Emax is no less than 80%. The half-inhibitory concentration (IC50) is greater than 1000 nM on RIPK2 (KD)/XIAP (BIR2), 500 to 1000 nM in assay [1] and greater than 2500 nM in assay [2].
For `COc1cc2ncc(-n3cc(NC(=O)Cc4c(F)cccc4Cl)cn3)n2cc1S(=O)(=O)C(C)(C)C` [Example 159, N-(1-(6-(tert-butylsulfonyl)-7-methoxyimidazo[1,2-a]pyridin-3-yl)-1H-pyrazol-4-yl)-2-(2-chloro-6-fluorophenyl)acetamide] the same measures were no less than 80%, 100 to 1000 nM, less than 200 nM and 500 to 2500 nM.
For `COc1cc2ncc(-n3cc(NC(=O)Cc4ccccc4)cn3)n2cc1S(=O)(=O)C(C)(C)C` [Example 160, N-(1-(6-(tert-butylsulfonyl)-7-methoxyimidazo[1,2-a]pyridin-3-yl)-1H-pyrazol-4-yl)-2-phenylacetamide] the same measures were no less than 80%, 100 to 1000 nM, 200 to 500 nM and greater than 2500 nM.
In the same order, the values of `COc1cc2ncc(-n3cc(NC(=O)[C@H](C)c4ccccc4)cn3)n2cc1S(=O)(=O)C(C)(C)C` [Example 161, (R)-N-(1-(6-(tert-butylsulfonyl)-7-methoxyimidazo[1,2-a]pyridin-3-yl)-1H-pyrazol-4-yl)-2-phenylpropanamide] are no less than 80%, 100 to 1000 nM, 200 to 500 nM and greater than 2500 nM.
In the case of `COc1cc2ncc(-n3cc(NC(=O)[C@@H](C)c4ccccc4)cn3)n2cc1S(=O)(=O)C(C)(C)C` [Example 162, (S)-N-(1-(6-(tert-butylsulfonyl)-7-methoxyimidazo[1,2-a]pyridin-3-yl)-1H-pyrazol-4-yl)-2-phenylpropanamide], the Emax at RIPK2 (KD)/XIAP (BIR2) is no less than 80%. Also, the figures for the concentration for half-maximal inhibition (IC50) (at RIPK2 (KD)/XIAP (BIR2); in assay [1]; in assay [2]) were greater than 1000 nM, 500 to 1000 nM and greater than 2500 nM, respectively.
For `COc1cc2ncc(-n3cc(NC(=O)C4CC4)cn3)n2cc1S(=O)(=O)C(C)(C)C` [Example 163, N-(1-(6-(tert-butylsulfonyl)-7-methoxyimidazo[1,2-a]pyridin-3-yl)-1H-pyrazol-4-yl)cyclopropanecarboxamide] the same measures were no more than 30%, greater than 1000 nM, greater than 1000 nM and greater than 2500 nM.
Turning to `COc1cc2ncc(-n3cc(NC(=O)C4CCCCC4)cn3)n2cc1S(=O)(=O)C(C)(C)C` [Example 164, N-(1-(6-(tert-butylsulfonyl)-7-methoxyimidazo[1,2-a]pyridin-3-yl)-1H-pyrazol-4-yl)cyclohexanecarboxamide], on RIPK2 (KD)/XIAP (BIR2), the Emax is no less than 80%. Moreover, the half-inhibitory concentration (IC50) at RIPK2 (KD)/XIAP (BIR2) was greater than 1000 nM; in assay [1] it was greater than 1000 nM; in assay [2], greater than 2500 nM.
Take `COc1cc2ncc(-n3cc(NC(=O)C4CCC(F)(F)CC4)cn3)n2cc1S(=O)(=O)C(C)(C)C` [Example 165, N-(1-(6-(tert-butylsulfonyl)-7-methoxyimidazo[1,2-a]pyridin-3-yl)-1H-pyrazol-4-yl)-4,4-difluorocyclohexane-1-carboxamide]: on RIPK2 (KD)/XIAP (BIR2), the Emax was in the range of 55 to 80%. Besides, the concentration for half-maximal inhibition (IC50) at RIPK2 (KD)/XIAP (BIR2) is greater than 1000 nM; in assay [1] it was greater than 1000 nM; in assay [2], greater than 2500 nM.
As for `COc1cc2ncc(-n3cc(NC(=O)[C@@H](c4ccccc4)N(C)C)cn3)n2cc1S(=O)(=O)C(C)(C)C` [Example 166, (R)-N-(1-(6-(tert-butylsulfonyl)-7-methoxyimidazo[1,2-a]pyridin-3-yl)-1H-pyrazol-4-yl)-2-(dimethylamino)-2-phenylacetamide], at RIPK2 (KD)/XIAP (BIR2), the Emax is no less than 80%. In addition, the IC50 on RIPK2 (KD)/XIAP (BIR2) was greater than 1000 nM; in assay [1], greater than 1000 nM; in assay [2], greater than 2500 nM.
Consider `COc1cc2ncc(-n3cc(NC(=O)CC4CCCCC4)cn3)n2cc1S(=O)(=O)C(C)(C)C` [Example 167, N-(1-(6-(tert-butylsulfonyl)-7-methoxyimidazo[1,2-a]pyridin-3-yl)-1H-pyrazol-4-yl)-2-cyclohexylacetamide], for which the Emax on RIPK2 (KD)/XIAP (BIR2) was no less than 80%. For the same compound, the results for the half-maximal inhibitory concentration (IC50) (on RIPK2 (KD)/XIAP (BIR2); in assay [1]; in assay [2]) were greater than 1000 nM, greater than 1000 nM and greater than 2500 nM, respectively.
Turning to `COc1cc2ncc(-n3cc(NC(=O)[C@@H]4C[C@H]4c4ccccc4)cn3)n2cc1S(=O)(=O)C(C)(C)C` [Example 168, (1R,2R)-N-(1-(6-(tert-butylsulfonyl)-7-methoxyimidazo[1,2-a]pyridin-3-yl)-1H-pyrazol-4-yl)-2-phenylcyclopropane-1-carboxamide], at RIPK2 (KD)/XIAP (BIR2), the Emax is no less than 80%. Besides, the IC50 on RIPK2 (KD)/XIAP (BIR2) was greater than 1000 nM; in assay [1], greater than 1000 nM; in assay [2], greater than 2500 nM.
As for `COc1cc2ncc(-n3cc(NC(=O)C4(F)CCCCC4)cn3)n2cc1S(=O)(=O)C(C)(C)C` [Example 169, N-(1-(6-(tert-butylsulfonyl)-7-methoxyimidazo[1,2-a]pyridin-3-yl)-1H-pyrazol-4-yl)-1-fluorocyclohexane-1-carboxamide], the Emax on RIPK2 (KD)/XIAP (BIR2) is no less than 80%. Also, the IC50 is greater than 1000 nM at RIPK2 (KD)/XIAP (BIR2), 200 to 500 nM in assay [1] and greater than 2500 nM in assay [2].
As for `COc1cc2ncc(-n3cc(NC(=O)c4ccccc4)cn3)n2cc1S(=O)(=O)C(C)(C)C` [Example 170, N-(1-(6-(tert-butylsulfonyl)-7-methoxyimidazo[1,2-a]pyridin-3-yl)-1H-pyrazol-4-yl)benzamide], the Emax on RIPK2 (KD)/XIAP (BIR2) lay in the range of 55 to 80%. Besides, the figures for the IC50 (at RIPK2 (KD)/XIAP (BIR2); in assay [1]; in assay [2]) were greater than 1000 nM, greater than 1000 nM and greater than 2500 nM, respectively.
In the case of `COc1cc2ncc(-n3cc(NC(=O)[C@H]4C[C@H]4c4ccccc4)cn3)n2cc1S(=O)(=O)C(C)(C)C` [Example 171, (1S,2R)-N-(1-(6-(tert-butylsulfonyl)-7-methoxyimidazo[1,2-a]pyridin-3-yl)-1H-pyrazol-4-yl)-2-phenylcyclopropane-1-carboxamide], the Emax on RIPK2 (KD)/XIAP (BIR2) was no less than 80%. The half-maximal inhibitory concentration (IC50) on RIPK2 (KD)/XIAP (BIR2) is 100 to 1000 nM; in assay [1], less than 200 nM; in assay [2] it was 500 to 2500 nM.
